Some test systems named below: UACC-257; M14; CAKI-1; MDA-MB-231; NCI-H460; SF-539; A498; SN12C; NCI-H226; HCT-15; HL-60; HCC 2998; SR; 786-0; MOLT-4; OVCAR-4; SK-MEL-2; UO-31; RXF 393; DU-145.
What all share (experiment): DTP human tumour cell line panel, 48 h

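Method: 48-hour compound exposure of cells in 96-well plates, five concentrations, linear interpolation of endpoints. At the GI50, growth is halved.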 Active and inactive are the calls of the source. Rule as the data show it: active = GI50 up to about 1.1 µM and inactive = higher.

The GI50 is the concentration that inhibits growth by half.

Take `N#C[BH2-][n+]1ccc(C(=O)NNCc2cccc(C(F)(F)F)c2)cc1`: the GI50 was 4.92 µM (inactive) with UACC-257; 8.75 µM (inactive) with M14; 37.9 µM (inactive) with CAKI-1; 10.4 µM (inactive) in the assay with MDA-MB-231; 20 µM (inactive) in the assay with NCI-H460; 4.08 µM (inactive) in the assay on SF-539. Further, the GI50 in the assay on A498 is 21.6 µM (inactive); in the assay on SN12C, 28.8 µM (inactive); in the assay with NCI-H226, 3.27 µM (inactive); with HCT-15 it was 21.3 µM; in the assay with HL-60, 23.4 µM (inactive); in the assay with HCC 2998, 7.11 µM (inactive). Further, the GI50 is 26.9 µM (inactive) with SR; 4.83 µM (inactive) with 786-0; 17.6 µM (inactive) with MOLT-4; 6.14 µM (inactive) with OVCAR-4; 12.1 µM (inactive) with SK-MEL-2; 11.9 µM (inactive) with UO-31. In addition, the GI50 is 8.22 µM (inactive) in the assay with RXF 393 and 33.1 µM (inactive) in the assay with DU-145.
As for `N#Cc1c(Cl)nc2ccccc2c1N=[N+]=[N-]`, the GI50 in the assay on UACC-257 was 12.7 µM (inactive); with M14 it was 2.84 µM (inactive); in the assay on CAKI-1 it was 1.68 µM (inactive); with MDA-MB-231, 1.89 µM (inactive); with NCI-H460, 5.19 µM (inactive); with SF-539, 2.15 µM (inactive). The GI50 in the assay with A498 was 21.7 µM (inactive); in the assay with SN12C, 5.14 µM (inactive); in the assay on NCI-H226 it was 12.5 µM (inactive); in the assay with HCT-15 it was 2.02 µM; with HL-60, 1.8 µM (inactive); in the assay with HCC 2998 it was 6.12 µM (inactive). Moreover, the GI50 in the assay with SR was 0.875 µM (active); in the assay with 786-0, 2.8 µM (inactive); with MOLT-4 it was 1.08 µM (active); in the assay on OVCAR-4, 1.91 µM (inactive); with SK-MEL-2, 1.91 µM (inactive); in the assay with UO-31, 4.71 µM (inactive). Besides, the figures for the GI50 in the assay on RXF 393 and with DU-145 were 1.44 µM (inactive) and 14.9 µM (inactive), respectively.
For the compound `O=c1[nH]c(-c2ccccc2)nc2c1sc1nc3ccccc3n12`, the GI50 in the assay on UACC-257, in the assay on M14, in the assay on CAKI-1, with MDA-MB-231, with NCI-H460 and in the assay with SF-539 was > 100 µM (inactive) in each case. Further, the GI50 in the assay on A498 is > 100 µM (inactive); in the assay on SN12C, > 100 µM (inactive); with NCI-H226 it was > 100 µM (inactive); with HCT-15 it was greater than 100 µM; in the assay with HL-60, > 100 µM (inactive); in the assay on HCC 2998, > 100 µM (inactive). Also, the GI50 in the assay on SR was > 100 µM (inactive); in the assay on 786-0 it was > 100 µM (inactive); in the assay on MOLT-4, 16.1 µM (inactive); in the assay on OVCAR-4, > 81.3 µM (inactive); in the assay on SK-MEL-2, > 100 µM (inactive); in the assay on UO-31, > 100 µM (inactive). In addition, the GI50 in the assay on RXF 393 and with DU-145 was > 100 µM (inactive) in each case.
With `COc1cccc2c3cccc(OC)c3c3[nH]cnc3c12`, the GI50 was 17.7 µM (inactive) in the assay with UACC-257; 1.71 µM (inactive) with M14; 16.9 µM (inactive) in the assay with CAKI-1; 1.87 µM (inactive) in the assay with MDA-MB-231; 1.72 µM (inactive) in the assay on NCI-H460; 1.32 µM (inactive) with SF-539. Moreover, the GI50 is 18.1 µM (inactive) in the assay on A498; 5.45 µM (inactive) in the assay on SN12C; 15.9 µM (inactive) in the assay with NCI-H226; 1.76 µM in the assay with HCT-15; 0.785 µM (active) in the assay on HL-60; 3.46 µM (inactive) in the assay with HCC 2998. Moreover, the GI50 in the assay with SR was 2.16 µM (inactive); in the assay on 786-0 it was 1.58 µM (inactive); in the assay with MOLT-4, 2.29 µM (inactive); with OVCAR-4, 5.45 µM (inactive); with SK-MEL-2, 20.1 µM (inactive); in the assay with UO-31, 1.66 µM (inactive). The GI50 in the assay on RXF 393 is 1.78 µM (inactive); with DU-145 it was 1.31 µM (inactive).
As to `Nc1ccn(C2CCC(CO)O2)c(=S)n1` (stereo not given), the GI50 in the assay with UACC-257, in the assay on M14, in the assay with CAKI-1, with MDA-MB-231, in the assay with NCI-H460 and in the assay with SF-539 was > 100 µM (inactive) throughout. Besides, the GI50 was > 100 µM (inactive) in the assay with A498; > 100 µM (inactive) in the assay with SN12C; > 100 µM (inactive) in the assay with NCI-H226; greater than 100 µM with HCT-15; > 100 µM (inactive) in the assay on HL-60; > 100 µM (inactive) in the assay with HCC 2998. Besides, the GI50 in the assay on SR was > 100 µM (inactive); in the assay with 786-0 it was > 100 µM (inactive); with MOLT-4, > 100 µM (inactive); in the assay with OVCAR-4 it was > 10 µM (inactive); in the assay on SK-MEL-2, > 100 µM (inactive); with UO-31, > 100 µM (inactive). Further, the GI50 with RXF 393 and in the assay on DU-145 was > 100 µM (inactive) throughout.
Consider `Cc1cc(C)nc(SC(C)C(=O)N/N=C/c2ccc(OCc3ccccc3)cc2)n1` (stereo not given), for which the GI50 with UACC-257 is 7.41 µM (inactive); with M14 it was 36.8 µM (inactive); in the assay with CAKI-1, 20.5 µM (inactive); with MDA-MB-231, 19.7 µM (inactive); in the assay on NCI-H460, 17.1 µM (inactive); in the assay on SF-539 it was 50.8 µM (inactive). For the same compound, the GI50 in the assay on A498 is 31.8 µM (inactive); with SN12C, 31.3 µM (inactive); with NCI-H226 it was 18.9 µM (inactive); with HCT-15 it was 26.4 µM; in the assay on HL-60 it was 14.5 µM (inactive); in the assay on HCC 2998, 28.1 µM (inactive). The GI50 with SR is 7.89 µM (inactive); in the assay on 786-0, 36.6 µM (inactive); in the assay on MOLT-4, 17.1 µM (inactive); in the assay on OVCAR-4, 15.7 µM (inactive); with SK-MEL-2, 21.6 µM (inactive); in the assay with UO-31, 32.1 µM (inactive). The GI50 in the assay on RXF 393 was 19.1 µM (inactive); in the assay with DU-145, 37.7 µM (inactive).
For the compound `C=CCC1(OCc2ccccc2)C(=O)C(=O)OC1C1COC(C)(C)O1` (stereo not given), the GI50 in the assay on UACC-257, with M14, in the assay on CAKI-1, in the assay on MDA-MB-231, with NCI-H460 and with SF-539 was > 100 µM (inactive) throughout. In addition, the GI50 is > 100 µM (inactive) in the assay on A498; > 100 µM (inactive) in the assay with SN12C; > 100 µM (inactive) in the assay with NCI-H226; greater than 100 µM in the assay with HCT-15; > 100 µM (inactive) in the assay on HL-60; > 100 µM (inactive) in the assay with HCC 2998. Besides, the GI50 in the assay with SR, in the assay on 786-0, in the assay on MOLT-4, with OVCAR-4, in the assay on SK-MEL-2 and with UO-31 was > 100 µM (inactive) in each case. Moreover, the GI50 in the assay on RXF 393 and in the assay on DU-145 was > 100 µM (inactive) in each case.

The values above are taken from ChEMBL document CHEMBL1201862, “PubChem BioAssay data set” (2004).
